From US9108933B2, “Method for treating proliferative disorders associated with mutations in c-Met” (Synta Pharmaceuticals Corp., priority 2007, dated 2015)
“Also recorded” adds a separate entry of the source.

Assays:
[1] = test system: mutant c-Met (T1010I) on ACHN human renal cell carcinoma cells; test: Flow cytometric analysis of c-Met on the surface of ACHN cells; type: cell-based; conditions: 18 hours, read-out: IC50 for degradation of mutant c-Met
Description: (§1) Flow cytometric analysis was used to monitor the degradation of c-Met over-expressed on the surface of the ACHN human renal cell carcinoma cell line which contains the juxtamembrane domain mutation (C3223T: T1010I) and is constitutively active, and the MKN45 which is a c-Met amplified human gastric carcinoma cell line. ACHN and MKN45 cells (5×10^5 cells) were treated with Compound 226, 17-AAG or 17-DMAG for 18 hours. After treatment the cells were stained with FITC conjugated c-MET antibody. The expression of the c-Met cell surface proteins was measured by flow cytometry analysis (see FIG. 4 for ACHN cells and FIG. 5 for MKN45 cells). The IC50 value was determined by XLfit software.

[2] = test system: c-Met on MKN45 c-Met amplified human gastric carcinoma cells; test: Flow cytometric analysis of c-Met on the surface of MKN45 cells; type: cell-based; conditions: MKN-45 cell line, 18 hours; read-out: IC50 for degradation of c-Met
Description: as §1

[3] = test system: MNK45 cell line, c-Met amplified human gastric carcinoma; test: Cell survival of MKN45 cells (Cell Counting Kit-8); type: cell-based; conditions: 72 hours
Description: MNK45 cell line, (DSMZ #ACC 409), which is a c-Met amplified human gastric carcinoma cell line, was obtained from the Deutsche Sammlung von Mikroorganismen and Zellkulturen GmbH (DSMZ; Braunschweig, Germany). […] MNK45 cells (20,000 cells/well) were cultured in 96-well plates and maintained at 37° C. for several hours. The cells were incubated at 37° C. for 72 hours with various concentrations of compound 226 of the invention, 17AAG, or DMAG. 17AAG and 17DMAG are Hsp90 inhibitors that are currently in clinical trials and are used here as positive controls for Hsp90 inhibition. Cell survival was measured with Cell Counting Kit-8 (Dojindo Laboratories, Cat # CK04).

[4] = test system: human tumor cell line MDA-MB-435S; test: MDA-MB-435S nude mouse xenograft model; type: in vivo; conditions: 300 mg/kg body weight, IP, 5 days per week for 3 weeks
Description: FBS was obtained from Sigma-Aldrich Corp. (St. Louis, Mo., USA), and all other reagents were obtained from Invitrogen Corp. (Carlsbad, Calif., USA). Approximately 4-5×10(6) cells that had been cryopreserved in liquid nitrogen were rapidly thawed at 37° C. and transferred to a 175 cm^2 tissue culture flask containing 50 ml of growth media and then incubated at 37° C. in a 5% CO2 incubator. The growth media was replaced every 2-3 days until the flask became 90% confluent, typically in 5-7 days. To passage and expand the cell line, a 90% confluent flask was washed with 10 ml of room temperature phosphate buffered saline (PBS) and the cells were disassociated by adding 5 ml 1× Trypsin-EDTA (Invitrogen) and incubating at 37° C. until the cells detached from the surface of the flask. […] The supernatant was aspirated and the cell pellet was resuspended in 10 ml of growth media and the cell number determined using a hemocytometer. […]
Six to eight week old, female Crl:CD-1-nuBR (nude) mice were obtained from Charles River Laboratories (Wilmington, Mass., USA). […] Tumor volumes (V) were calculated by caliper measurement of the width (W), length (L) and thickness (T) of tumors using the following formula: V=[…]×(L×W×T) Animals were randomized into treatment groups so that the average tumor volumes of each group were similar at the start of dosing. […]

Hsp90 protein = test: Malachite Green assay of ATPase activity of Hsp90 protein; type: biochemical; conditions: 37° C., 4 hours
Description: Hsp90 protein was obtained from Stressgen (Cat#SPP-770). Assay buffer: 100 mM Tris-HCl, Ph7.4, 20 mM KCl, 6 mM MgCl2. […] Malachite green reagent was added to the reaction. […] The plate was read by an ELISA reader with an absorbance at 620 nm.

Her2 = test: Degradation of Her2 in BT-474 cells, Western blot (Method 1); type: cell-based, human; conditions: overnight
Description: Human high-Her2 breast carcinoma BT474 (HTB-20), SK-BR-3 (HTB-30) and MCF-7 breast carcinoma (HTB-22) from American Type Culture Collection, VA, USA were grown in Dulbecco's modified Eagle's medium with 4 mM L-glutamine and antibiotics (100 IU/ml penicillin and 100 ug/ml streptomycine; GibcoBRL). To obtain exponential cell growth, cells were trypsinized, counted and seeded at a cell density of 0.5×10^6 cells/ml regularly, every 3 days. All experiments were performed on day 1 after cell passage.
After treatment, each cytoplasmic sample was prepared from 1×10^6 cells by incubation of cell lysis buffer (#9803, cell Signaling Technology) on ice for 10 minutes. The resulting supernatant used as the cytosol fractions were dissolved with sample buffer for SDS-PAGE and run on a SDS-PAGE gel, blotted onto a nitrocellulose membrane by using semi-dry transfer. Non-specific binding to nitrocellulose was blocked with 5% skim milk in TBS with 0.5% Tween at room temperature for 1 hour, then probed with anti-Her2/ErB2 mAb (rabbit IgG, #2242, Cell Signaling) and anti-Tubulin (T9026, Sigma) as housekeeping control protein. HRP-conjugated goat antirabbit IgG (H+L) and HRP-conjugated horse anti-mouse IgG (H+L) were used as secondary Ab (#7074, #7076, Cell Signaling) and LumiGLO reagent, 20× Peroxide (#7003, Cell Signaling) was used for visualization.

[5] = test system: human c-MET amplified gastric carcinoma tumor cell line MKN-45; test: MKN-45 nude mouse xenograft model; type: in vivo; conditions: 50 mg/kg body weight, i.v., 3 times per week, 9 doses
Description: The human gastric carcinoma cell line, MKN-45 (DSMZ #ACC 409), was obtained from the Deutsche Sammlung von Mikroorganismen and Zellkulturen GmbH (DSMZ; Braunschweig, Germany). […] FBS was obtained from ATCC and all other reagents were obtained from Invitrogen Corp. (Carlsbad, Calif., USA). Cells that had been cryopreserved in liquid nitrogen were rapidly thawed at 37° C. and transferred to a tissue culture flask containing growth media and then incubated at 37° C. in a 5% CO2 incubator. To expand the cell line, growth media was replaced every 2-3 days until the flask became 90% confluent, typically in 5-10 days. Cultures were passaged by washing with 10 mL of room temperature phosphate buffered saline (PBS) and then disassociating cells by adding 5 mL 1× trypsin-EDTA and incubating at 37° C. until the cells detached from the surface of the flask. To inactivate the trypsin, 5 mL of growth media was added and then the contents of the flask were centrifuged to pellet the cells. The supernatant was aspirated and the cell pellet was resuspended in 10 mL of growth media and the cell number determined using a hemocytometer. Approximately 3-6×10(6) cells per flask were seeded into 175 cm^2 flasks containing 50 mL of growth media and incubated at 37° C. in a 5% CO2 incubator. […]
Tumors were then permitted to develop in vivo until the majority reached 100-200 mm^3 in tumor volume, which required ˜2 weeks following implantation. […] Tumor volumes (V) were calculated by caliper measurement of the width (W), length (L) and thickness (T) of tumors using the following formula: V=0.5236×(L×W×T). Animals were randomized into treatment groups so that the average tumor volumes of each group were similar at the start of dosing. % T/C values, as a measure of efficacy, were determined as follows: • (i) If ΔT>0: % T/C=(ΔT/ΔC)×100 • (ii) If ΔT<0: % T/C=(ΔT/T0)×100 • (iii) ΔT=Change in average tumor volume between start of dosing and the end of study. • (iv) ΔC=Change in average tumor volume between start of dosing and the end of study. • (v) T0=Average tumor volume at start of dosing. […]

Q: With C=CCNC1=C2C[C@@H](C)C[C@H](OC)[C@H](O)[C@@H](C)/C=C(\C)[C@H](OC(N)=O)[C@@H](OC)/C=C\C=C(/C)C(=O)NC(=CC1=O)C2=O [Compound 17-AAG] as the compound, how does the IC50 [1] read?
A: 244 nM

Q: What about the IC50 [2] of the same compound?
A: 202 nM

Q: Which IC50 [1] does the source give for CO[C@H]1/C=C\C=C(/C)C(=O)NC2=CC(=O)C(NCCN(C)C)=C(C[C@@H](C)C[C@H](OC)[C@H](O)[C@@H](C)/C=C(\C)[C@@H]1OC(N)=O)C2=O [Compound 17-DMAG] here?
A: 95 nM

Q: And the IC50 [2]?
A: 70 nM

Q: What about the IC50 [3] of the same compound?
A: 14 nM

Q: For C=CCNC1=C2C[C@@H](C)C[C@H](OC)[C@H](O)[C@@H](C)/C=C(\C)[C@H](OC(N)=O)[C@@H](OC)/C=C\C=C(/C)C(=O)NC(=CC1=O)C2=O [Compound 17AAG], which IC50 [3] is on record?
A: 45 nM

Q: Which “toxicity (effect on body weights)” value [4] does the source give for CCc1cc(-c2nnc(S)n2-c2cccc3ccccc23)c(O)cc1O [Compound 49, 3-(2,4-Dihydroxy-5-ethyl-phenyl)-4-(naphthalen-1-yl)-5-mercapto-triazole] here?
A: not associated with significant toxicity

Q: With Oc1ccc(-c2nnc(S)n2-c2cccc3ccccc23)c(O)c1 [Compound 108, 3-(2,4-Dihydroxy-3-phenyl)-4-(naphthalen-1-yl)-5-mercapto-triazole] as the compound, how does the “inhibition of ATPase activity of Hsp90” value (Hsp90 protein; 4 μM) read?
A: significant inhibition

Q: What about the “inhibition of ATPase activity of Hsp90” value (Hsp90 protein; 40 μM) of the same compound?
A: even greater inhibition of ATPase activity of Hsp90 than geldanamycin

Q: What about the “degradation of Her2” value (Her2; 0.5 μM) of the same compound?
A: partially degradated

Q: What about the “degradation of Her2” value (Her2; 2 μM) of the same compound?
A: partially degradated

Q: What about the “degradation of Her2” value (Her2; 5 μM) of the same compound?
A: almost completely degraded

Q: How did the IC50 [1] turn out when CC(C)c1cc(-c2nnc(O)n2-c2ccc3c(ccn3C)c2)c(O)cc1O [Compound 226, 3-(2,4-dihydroxy-5-isopropyl-phenyl)-4-(1-methyl-indol-5-yl)-5-hydroxy-[1,2,4] triazole] was run?
A: 18 nM

Q: What about the IC50 [2] of the same compound?
A: 26 nM

Q: What about the IC50 ([3]; Homo sapiens) of the same compound?
A: 8 nM

Q: What about the toxicity [5] of the same compound?
A: not associated with excessive toxicity; also recorded: Overt toxicity was not observed

Q: What about the “% T/C value” ([5]; day 36) of the same compound?
A: 8%

Q: And the “average bodyweight loss relative to the start of the study” value ([5]; day 36)?
A: −3.5%
